Reference: patent US20190022152A1, “MICROBIOME RESPONSE TO AGENTS” (Yeda Research and Development Co., Ltd., priority 2014, published 2019)

Tests used:
fecal microbiota = tested on: fecal microbiota
Description: Frozen fecal samples were processed for DNA isolation using the MoBio PowerSoil kit according to the manufacturer's instructions. 1 ng of the purified fecal DNA was used for PCR amplification and sequencing of the bacterial 16S rRNA gene. ˜365 bp Amplicons spanning the variable region 2 (V2) of the 16S rRNA gene were generated by using the following barcoded primers: Fwd 5′-[…]-3′ (SEQ ID NO: 3), Rev 5′-[…]-3′ (SEQ ID NO: 4). […] Reads were then processed using the QIIME (Quantitative Insights Into Microbial Ecology) analysis pipeline as described, version 1.8. Paired-end joined sequences were grouped into operational taxonomic units (OTUs) using the UCLUST algorithm and the greengenes database. Sequences with distance-based similarity of 97% or greater over median sequence length of 353 bp were assigned to the same OTU. Samples were grouped according to the treatment. Analysis was performed at each taxonomical level (Phylum-genus+OTU level) separately. For each taxon, G test was performed between the different groups. P-values were FDR corrected for multiple hypothesis testing.

[1] = tested on: fecal microbiota KEGG pathways; assay: Shotgun metagenomic sequencing: KEGG pathway abundance (Table 2); type: in vivo, mice
Description: Illumina sequence reads were mapped to the human microbiome reference genome database of the Human Microbiome Project [www(dot)hmpdacc(dot)org/HMREFG/^32], and to a gut microbial gene catalogue^33 using GEM mapper^58 with the following parameters: • -m 3 -s 0 -q offset-33 -gem-quality-threshold 26
Microbial species abundance was measured as the fraction of reads that mapped to a single species in the database. An EM algorithm adapted from Pathoscope^59 was employed to determine the correct assignment of reads that mapped to more than one species. We considered only species for which at least 10% of the genome was covered (each coverage bin was 10,000-bp long) in at least one of the growth conditions (saccharin, water, or glucose). Reads mapped to the gut microbial gene catalogue were assigned a KEGG^34,35 ID according to the mapping available with the catalogue. Genes were subsequently mapped to KEGG pathways, and only pathways whose gene coverage was above 0.2 were included.

O=C1NS(=O)(=O)c2ccccc21 [saccharin]
microbiota composition (dysbiosis) (fecal microbiota; mice consuming pure saccharin and HFD): dysbiosis was observed
operational taxonomic units (OTUs) significantly altered in abundance (fecal microbiota; saccharin-consuming mice vs all control groups, week 11, FDR corrected p<0.05 (FIG. 21: commercial saccharin)): > 40
glycan degradation pathways abundance ([1]; GF mice transplanted with microbiomes cultured in vitro with 5 mgml^−1 saccharin vs PBS): highly enriched
Log_fold change: 2-Oxocarboxylic acid metabolism ([1]; In vivo (week 11/week 0)): 0.10
Log_fold change: ABC transporters ([1]; In vivo (week 11/week 0)): 0.02
Log_fold change: Alanine, aspartate and glutamate metabolism ([1]; In vivo (week 11/week 0)): 0.02
Log_fold change: Amino sugar and nucleotide sugar metabolism ([1]; In vivo (week 11/week 0)): 0.09
Log_fold change: Aminoacyl-tRNA biosynthesis ([1]; In vivo (week 11/week 0)): −0.13
Log_fold change: Aminobenzoate degradation ([1]; In vivo (week 11/week 0)): 0.04
Log_fold change: Arginine and proline metabolism ([1]; In vivo (week 11/week 0)): 0.05
Log_fold change: Ascorbate and aldarate metabolism ([1]; In vivo (week 11/week 0)): 0.27
Log_fold change: Atrazine degradation ([1]; In vivo (week 11/week 0)): 0.12
Log_fold change: Bacterial chemotaxis ([1]; In vivo (week 11/week 0)): 0.30
Log_fold change: Bacterial secretion system ([1]; In vivo (week 11/week 0)): −0.10
Log_fold change: Base excision repair ([1]; In vivo (week 11/week 0)): 0.03
Log_fold change: Benzoate degradation ([1]; In vivo (week 11/week 0)): 0.00
Log_fold change: Biosynthesis of amino acids ([1]; In vivo (week 11/week 0)): 0.03
Log_fold change: Biosynthesis of siderophore group nonribosomal peptides ([1]; In vivo (week 11/week 0)): 0.16
Log_fold change: Biosynthesis of unsaturated fatty acids ([1]; In vivo (week 11/week 0)): −0.07
Log_fold change: Biotin metabolism ([1]; In vivo (week 11/week 0)): 0.13
Log_fold change: Bisphenol degradation ([1]; In vivo (week 11/week 0)): 0.04
Log_fold change: Butanoate metabolism ([1]; In vivo (week 11/week 0)): 0.00
Log_fold change: CS-Branched dibasic acid metabolism ([1]; In vivo (week 11/week 0)): 0.11
Log_fold change: Caprolactam degradation ([1]; In vivo (week 11/week 0)): 0.29
Log_fold change: Carbon fixation in photosynthetic organisms ([1]; In vivo (week 11/week 0)): −0.13
Log_fold change: Carbon fixation pathways in prokaryotes ([1]; In vivo (week 11/week 0)): 0.01
Log_fold change: Carbon metabolism ([1]; In vivo (week 11/week 0)): 0.00
Log_fold change: Cell cycle-Caulobacter ([1]; In vivo (week 11/week 0)): −0.06
Log_fold change: Chloroalkane and chloroalkene degradation ([1]; In vivo (week 11/week 0)): −0.07
Log_fold change: Citrate cycle (TCA cycle) ([1]; In vivo (week 11/week 0)): 0.03
Log_fold change: Cyanoamino acid metabolism ([1]; In vivo (week 11/week 0)): 0.18
Log_fold change: Cysteine and methionine metabolism ([1]; In vivo (week 11/week 0)): −0.02
Log_fold change: D-Alanine metabolism ([1]; In vivo (week 11/week 0)): −0.10
Log_fold change: D-Arginine and D-ornithine metabolism ([1]; In vivo (week 11/week 0)): −0.08
Log_fold change: D-Glutamine and D-glutamate metabolism ([1]; In vivo (week 11/week 0)): −0.04
Log_fold change: DDT degradation ([1]; In vivo (week 11/week 0)): −0.61
Log_fold change: DNA replication ([1]; In vivo (week 11/week 0)): −0.06
Log_fold change: Dioxin degradation ([1]; In vivo (week 11/week 0)): −0.34
Log_fold change: Drug metabolism-other enzymes ([1]; In vivo (week 11/week 0)): 0.05
Log_fold change: Ether lipid metabolism ([1]; In vivo (week 11/week 0)): 0.05
Log_fold change: Fatty acid biosynthesis ([1]; In vivo (week 11/week 0)): 0.05
Log_fold change: Fatty acid degradation ([1]; In vivo (week 11/week 0)): −0.03
Log_fold change: Fatty acid metabolism ([1]; In vivo (week 11/week 0)): 0.06
Log_fold change: Flagellar assembly ([1]; In vivo (week 11/week 0)): −0.18
Log_fold change: Folate biosynthesis ([1]; In vivo (week 11/week 0)): 0.13
Log_fold change: Fructose and mannose metabolism ([1]; In vivo (week 11/week 0)): 0.18
Log_fold change: Galactose metabolism ([1]; In vivo (week 11/week 0)): 0.24
Log_fold change: Geraniol degradation ([1]; In vivo (week 11/week 0)): 0.04
Log_fold change: Glutathione metabolism ([1]; In vivo (week 11/week 0)): 0.12
Log_fold change: Glycerolipid metabolism ([1]; In vivo (week 11/week 0)): 0.11
Log_fold change: Glycerophospholipid metabolism ([1]; In vivo (week 11/week 0)): 0.06
Log_fold change: Glycine, serine and threonine metabolism ([1]; In vivo (week 11/week 0)): 0.13
Log_fold change: Glycolysis/Gluconeogenesis ([1]; In vivo (week 11/week 0)): −0.09
Log_fold change: Glycosaminoglycan degradation ([1]; In vivo (week 11/week 0)): 0.34
Log_fold change: Glycosphingolipid biosynthesis-globoseries ([1]; In vivo (week 11/week 0)): 0.33
Log_fold change: Glyoxylate and dicarboxylate metabolism ([1]; In vivo (week 11/week 0)): 0.13
Log_fold change: Histidine metabolism ([1]; In vivo (week 11/week 0)): 0.13
Log_fold change: Homologous recombination ([1]; In vivo (week 11/week 0)): −0.09
Log_fold change: Inositol phosphate metabolism ([1]; In vivo (week 11/week 0)): −0.01
Log_fold change: Limonene and pinene degradation ([1]; In vivo (week 11/week 0)): 0.04
Log_fold change: Lipoicacid metabolism ([1]; In vivo (week 11/week 0)): 0.36
Log_fold change: Lipopolysaccharide biosynthesis ([1]; In vivo (week 11/week 0)): 0.21
Log_fold change: Lysine biosynthesis ([1]; In vivo (week 11/week 0)): −0.07
Log_fold change: Lysine degradation ([1]; In vivo (week 11/week 0)): 0.14
Log_fold change: Methane metabolism ([1]; In vivo (week 11/week 0)): 0.02
Log_fold change: Mismatch repair ([1]; In vivo (week 11/week 0)): −0.03
Log_fold change: Naphthalene degradation ([1]; In vivo (week 11/week 0)): 0.04
Log_fold change: Nicotinate and nicotinamide metabolism ([1]; In vivo (week 11/week 0)): −0.05
Log_fold change: Nitrogen metabolism ([1]; In vivo (week 11/week 0)): 0.00
Log_fold change: Nitrotoluene degradation ([1]; In vivo (week 11/week 0)): −0.22
Log_fold change: Novobiocin biosynthesis ([1]; In vivo (week 11/week 0)): 0.29
Log_fold change: Nucleotide excision repair ([1]; In vivo (week 11/week 0)): −0.08
Log_fold change: One carbon pool by folate ([1]; In vivo (week 11/week 0)): 0.07
Log_fold change: Other glycan degradation ([1]; In vivo (week 11/week 0)): 0.36
Log_fold change: Oxidative phosphorylation ([1]; In vivo (week 11/week 0)): −0.03
Log_fold change: Pantothenate and CoA biosynthesis ([1]; In vivo (week 11/week 0)): 0.04
Log_fold change: Penicillin and cephalosporin biosynthesis ([1]; In vivo (week 11/week 0)): 0.00
Log_fold change: Pentose and glucuronate interconversions ([1]; In vivo (week 11/week 0)): 0.31
Log_fold change: Pentose phosphate pathway ([1]; In vivo (week 11/week 0)): 0.03
Log_fold change: Peptidoglycan biosynthesis ([1]; In vivo (week 11/week 0)): 0.01
Log_fold change: Phenylalanine metabolism ([1]; In vivo (week 11/week 0)): 0.30
Log_fold change: Phenylalanine, tyrosine and tryptophan biosynthesis ([1]; In vivo (week 11/week 0)): 0.24
Log_fold change: Phosphonate and phosphinate metabolism ([1]; In vivo (week 11/week 0)): 0.30
Log_fold change: Phosphotransferase system (PTS) ([1]; In vivo (week 11/week 0)): −0.43
Log_fold change: Porphyrin and chlorophyll metabolism ([1]; In vivo (week 11/week 0)): 0.23
Log_fold change: Propanoate metabolism ([1]; In vivo (week 11/week 0)): 0.02
Log_fold change: Protein export ([1]; In vivo (week 11/week 0)): −0.04
Log_fold change: Proximal tubule bicarbonate reclamation ([1]; In vivo (week 11/week 0)): −0.01
Log_fold change: Purine metabolism ([1]; In vivo (week 11/week 0)): −0.08
Log_fold change: Pyrimidine metabolism ([1]; In vivo (week 11/week 0)): −0.08
Log_fold change: Pyruvate metabolism ([1]; In vivo (week 11/week 0)): 0.01
Log_fold change: RNA degradation ([1]; In vivo (week 11/week 0)): −0.05
Log_fold change: Riboflavin metabolism ([1]; In vivo (week 11/week 0)): −0.02
Log_fold change: Ribosome ([1]; In vivo (week 11/week 0)): −0.24
Log_fold change: Selenocompound metabolism ([1]; In vivo (week 11/week 0)): 0.03
Log_fold change: Sphingolipid metabolism ([1]; In vivo (week 11/week 0)): 0.34
Log_fold change: Starch and sucrose metabolism ([1]; In vivo (week 11/week 0)): 0.19
Log_fold change: Streptomycin biosynthesis ([1]; In vivo (week 11/week 0)): 0.10
Log_fold change: Styrene degradation ([1]; In vivo (week 11/week 0)): −0.06
Log_fold change: Sulfur metabolism ([1]; In vivo (week 11/week 0)): 0.19
Log_fold change: Sulfur relay system ([1]; In vivo (week 11/week 0)): −0.03
Log_fold change: Synthesis and degradation of ketone bodies ([1]; In vivo (week 11/week 0)): −0.35
Log_fold change: Taurine and hypotaurine metabolism ([1]; In vivo (week 11/week 0)): 0.14
Log_fold change: Terpenoid backbone biosynthesis ([1]; In vivo (week 11/week 0)): 0.04
Log_fold change: Tetracycline biosynthesis ([1]; In vivo (week 11/week 0)): −0.50
Log_fold change: Thiamine metabolism ([1]; In vivo (week 11/week 0)): −0.03
Log_fold change: Tropane, piperidine and pyridine alkaloid biosynthesis ([1]; In vivo (week 11/week 0)): 0.27
Log_fold change: Tryptophan metabolism ([1]; In vivo (week 11/week 0)): 0.01
Log_fold change: Two−component system ([1]; In vivo (week 11/week 0)): 0.06
Log_fold change: Tyrosine metabolism ([1]; In vivo (week 11/week 0)): 0.02
Log_fold change: Ubiquinone and other terpenoid-quinone biosynthesis ([1]; In vivo (week 11/week 0)): 0.03
Log_fold change: Valine, leucine and isoleucine biosynthesis ([1]; In vivo (week 11/week 0)): 0.10
Log_fold change: Valine, leucine and isoleucine degradation ([1]; In vivo (week 11/week 0)): 0.06
Log_fold change: Vibriocholerae pathogenic cycle ([1]; In vivo (week 11/week 0)): −0.01
Log_fold change: Vitamin B6 metabolism ([1]; In vivo (week 11/week 0)): 0.16
Log_fold change: Xylene degradation ([1]; In vivo (week 11/week 0)): −0.51
Log_fold change: beta-Alanine metabolism ([1]; In vivo (week 11/week 0)): 0.14
Log_fold change: beta-Lactam resistance ([1]; In vivo (week 11/week 0)): 0.11
KEGG pathways incl. ascorbate and aldarate metabolism, lipopolysaccharide biosynthesis, bacterial chemotaxis ([1]; mice consuming HFD and pure saccharin vs water): multiple enriched pathways
starch and sucrose, fructose and mannose metabolism, folate-, glycerolipid- and fatty acid biosynthesis pathways ([1]; microbiomes of saccharin consuming mice): enriched
glucose transport pathways ([1]; saccharin-consuming mice): underrepresented
glycan degradation pathways abundance ([1]; saccharin-consuming mice, week 11 vs week 0): strong increase
